This note sets out measurements from patent EP4620955A1, “MC4R ANTAGONIST COMPOUND, PHARMACEUTICAL COMPOSITION AND PHARMACEUTICAL USE THEREOF” (Changchun Genescience Pharmaceutical Co., Ltd., priority 2022, dated 2024).

pIC50: −log10 of the molar value.

For one series, the target named is T1, MC4R (Homo sapiens, UniProt P32245).
T1 construct: expressed in transfected cells; host or cells: flipin-293-MC4 (Flp-In 293 host, hygromycin selection)
T1 sequence (P32245 whole entry): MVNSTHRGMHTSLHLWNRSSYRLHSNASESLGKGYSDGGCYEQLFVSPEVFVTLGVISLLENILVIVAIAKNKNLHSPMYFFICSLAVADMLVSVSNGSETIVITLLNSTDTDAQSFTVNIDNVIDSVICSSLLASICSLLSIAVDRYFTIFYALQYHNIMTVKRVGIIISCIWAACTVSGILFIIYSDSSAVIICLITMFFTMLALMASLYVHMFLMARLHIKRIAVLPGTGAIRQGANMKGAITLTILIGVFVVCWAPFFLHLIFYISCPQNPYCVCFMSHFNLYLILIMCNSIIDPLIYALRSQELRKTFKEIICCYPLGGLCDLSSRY
The series can be described thus: Assay of MC4R antagonist activity in cells in vitro (cAMP assay, Melanotan I stimulation). The format is cell-based. The conditions noted are these: flipin-293-MC4 cell line, Melanotan I as agonist. The protocol:
Test Example 1: Assay of MC4R antagonist activity in cells in vitro
a. Experimental consumables:
b. Experimental steps • ✔ Cell line: flipin-293-MC4 • ✔ Cell culture medium: DMEM, 10% fetal bovine serum, 1 × PS, 200 µg/mL hygromycin • ✔ Experimental buffer: HBSS, 20 mM HEPES, 0.1% BSA, 500 µM IBMX • ✔ Positive compound: ML00253764 c. Antagonist detection • 1. Digested cells were suspended in the experimental buffer, and then inoculated into the 384-well cell culture plate. • 2. The to-be-detected compound was added to the cell plate, and incubated at 37°C for 10 min. • 3. Melanotan I was added to the cell plate, and incubated at 37°C for 30 min. • 4. Two detection reagents EU cAMP tracer and ulight anti camp were thawed and diluted with a lysis solution in the kit. • 5. The diluted detection reagents were added to the cell plate and incubated at room temperature for 1 h. • 6. Reading was carried out by Envision. (Excitation light: 340 nm, emission light: 615 nm and 665 nm) d. Data analysis • 1. %Inhibition calculation: %Inhibition = (Signalcmpd−SignalAve_VC)/(SignalAve_PC−SignalAve_VC) × 100. [formula] • Signalcmpd: compound signal value; • SignalAve_VC: negative control signal value; • SignalAve_PC: positive control signal value; • %inhibition: inhibition percentage. • 2. Calculation of IC50 of the compound using the nonlinear fitting equation in GraphPad: Y = Bottom + (Top−Bottom)/(1+10^(∧)((LogIC50−X)×HillSlope)) [formula] X: logarithmic value of the concentration of the compound; Y: inhibition percentage
(In general: Changes in cAMP serve as a functional read-out for many G protein-coupled receptors.)
For the compound `COc1cc([C@@H](C)C(=O)N2CCC(Nc3ccc(-c4ncccn4)c(C)n3)C2)c(F)cn1` (stereo partly drawn) [Compound 001, (2R)-2-(5-fluoro-2-methoxypyridine-4-yl)-1-(3-((6-methyl-5-(pyrimidine-2-yl)pyridine-2-yl)amino)pyrrolidine-1-yl)propyl-1-one], the negative logarithm of the IC50 (pIC50) (commonly the negative decadic logarithm of the IC50, by convention in mol/L) is 7.79.

Regarding `COc1cc([C@@H](C)C(=O)N2C[C@@H](C)[C@H](Nc3ccc(-c4ncccn4)c(C)n3)C2)c(F)cn1` [Compound 051-2, (R)-2-(5-fluoro-2-methoxypyridine-4-yl)-1-((3R,4S)-3-methyl-4-((6-methyl-5-(pyrimidine-2-yl)pyridine-2-yl)amino)pyrrolidine-1-yl)propan-1-one], the pIC50 is 7.97.

Regarding `COc1cc([C@@H](C)C(=O)N2CC[C@H](Nc3ccc(-c4ncc(C#N)cn4)c(C)n3)C2)c(F)cn1` [Compound 110, 2-(6-(((S)-1-((R)-2-(5-fluoro-2-methoxypyridine-4-yl)propionyl)pyrrolidine-3-yl)amino)-2-methylpyridine-3-yl)pyrimidine-5-nitrile], the pIC50 was 7.58.

Take `COc1cc([C@@H](C)C(=O)N2CC[C@H](Nc3ccc(-c4nccc(C#N)n4)c(C)n3)C2)c(Cl)cn1` [Compound 113, 2-(6-(((S)-1-((R)-2-(5-chloro-2-methoxypyridine-4-yl)propionyl)pyrrolidine-3-yl)amino)-2-methylpyridine-3-yl)pyrimidine-4-nitrile]: the pIC50 was 9.05. This pIC50 lies 1.47 log units higher than the previous one.

`COc1ccc2nc(N[C@@H]3CN(C(=O)[C@H](C)c4cc(OC)ncc4F)CC34CC4)nc(C)c2c1` [Compound 115, (R)-2-(5-fluoro-2-methoxypyridine-4-yl)-1-((S)-7-((6-methoxy-4-methylquinazoline-2-yl)amino)-5-azaspiro[2.4]heptane-5-yl)propan-1-one] showed a negative logarithm of the IC50 (pIC50) of 8.56.

`COc1cc([C@@H](C)C(=O)N2C[C@@H](Nc3ccc4cc(OC)c(F)cc4n3)C3(CC3)C2)c(F)cn1` [Compound 117, (R)-2-(5-fluoro-2-methoxypyridine-4-yl)-1-((S)-7-((7-fluoro-6-methoxyquinoline-2-yl)amino)-5-azaspiro[2.4]heptane-5-yl)propan-1-one] showed a pIC50 of 8.80.

`COc1ccc2nc(N[C@@H]3CN(C(=O)[C@H](C)c4cc(OC)ncc4Cl)CC34CC4)nc(C)c2c1` [Compound 118] had a pIC50 of 8.43.

In turn, `COc1cc([C@@H](C)C(=O)N2C[C@@H](Nc3ccc(-c4nc(C(F)F)n(C)n4)c(C)n3)C3(CC3)C2)c(F)cn1` [Compound 119, (R)-1-((S)-7-((5-(5-(difluoromethyl)-1-methyl-1H-1,2,4-triazole-3-yl)-6-methylpyridine-2-yl)amino)-5-azaspiro[2.4]heptane-5-yl)-2-(5-fluoro-2-methoxypyridine-4-yl)propan-1-one] gave a negative logarithm of the IC50 (pIC50) of 8.77. Compared with the last compound, the pIC50 is 0.34 log units higher.

The compound `COc1cc([C@@H](C)C(=O)N2C[C@@H](Nc3ccc(-c4nc(C)n(C)n4)c(C)n3)C3(CC3)C2)c(F)cn1` [Compound 132, (2R)-1-[(7S)-7-{[5-(1,5-dimethyl-1H-1,2,4-triazole-3-yl)-6-methylpyridine-2-yl]amino}-5-azaspiro[2.4]heptane-5-yl]-2-(5-fluoro-2-methoxypyridine-4-yl)propan-1-one] had a negative-log IC50 (pIC50) of 8.97.

Compound `COc1cc([C@@H](C)C(=O)N2C[C@@H](Nc3ccc(-c4ncn(C)n4)c(C)n3)C3(CC3)C2)c(F)cn1` [Compound 136, (2R)-2-(5-fluoro-2-methoxypyridine-4-yl)-1-[(7S)-7-{[6-methyl-5-(1-methyl-1H-1,2,4-triazole-3-yl)pyridine-2-yl]amino}-5-azaspiro[2.4]heptane-5-yl]propan-1-one] had a negative-log IC50 (pIC50) of 8.89.

`COc1cc([C@@H](C)C(=O)N2C[C@@H](Nc3ccc(-c4nc(C)n(C)n4)c(C)n3)C3(CC3)C2)c(Cl)cn1` [Compound 141, (2R)-2-(5-chloro-2-methoxypyridine-4-yl)-1-[(7S)-7-{[5-(1,5-dimethyl-1H-1,2,4-triazole-3-yl)-6-methylpyridine-2-yl]amino}-5-azaspiro[2.4]heptane-5-yl]propan-1-one] had a pIC50 of 8.54.

Compound `COc1cc([C@@H](C)C(=O)N2C[C@@H](Nc3ccc(-c4ncn(C)n4)c(C)n3)C3(CC3)C2)c(Cl)cn1` [Compound 142, (2R)-2-(5-chloro-2-methoxypyridine-4-yl)-1-[(7S)-7-{[6-methyl-5-(1-methyl-1H-1,2,4-triazole-3-yl)pyridine-2-yl]amino}-5-azaspiro[2.4]heptane-5-yl]propan-1-one] showed a pIC50 of 8.48.

`COc1cc([C@@H](C)C(=O)N2C[C@@H](Nc3ccc(-c4cnn(C)c4)c(C)n3)C3(CC3)C2)c(F)cn1` [Compound 143, (2R)-2-(5-fluoro-2-methoxypyridine-4-yl)-1-((7S)-7-((6-methyl-5-(1-methyl-1H-pyrazol-4-yl)pyridine-2-yl)amino)-5-azaspiro[2.4]heptane-5-yl)propan-1-one] showed a negative logarithm of the IC50 (pIC50) of 8.24.

Turning to `COc1cc([C@@H](C)C(=O)N2C[C@@H](Nc3ccc(-c4cnn(C)c4)c(C)n3)C3(CC3)C2)c(Cl)cn1` [Compound 144], the negative logarithm of the IC50 (pIC50) is 8.74.

Compound `COc1cc([C@@H](C)C(=O)N2C[C@@H](Nc3ccc(-c4cn(C)c(C)n4)c(C)n3)C3(CC3)C2)c(F)cn1` [Compound 149, (R)-1-((S)-7-((5-(1,2-dimethyl-1H-imidazol-4-yl)-6-methylpyridine-2-yl)amino)-5-azaspiro[2.4]hept-5-yl)-2-(5-fluoro-2-methoxypyridine-4-yl)propan-1-one] had a negative logarithm of the IC50 (pIC50) of 8.76.

The compound `COc1cc([C@@H](C)C(=O)N2C[C@@H](Nc3ccc(-c4cn(C)cn4)c(C)n3)C3(CC3)C2)c(F)cn1` [Compound 150, (R)-2-(5-fluoro-2-methoxypyridine-4-yl)-1-((S)-7-((6-methyl-5-(1-methyl-1H-imidazol-4-yl)pyridine-2-yl)amino)-5-azaspiro[2.4]hept-5-yl)propan-1-one] showed a pIC50 of 8.74.

In turn, `COc1cc([C@@H](C)C(=O)N2C[C@@H](Nc3ccc(-c4nccc(C(F)F)n4)c(C)n3)C3(CC3)C2)c(F)cn1` [Compound 155, (R)-1-((S)-7-((5-(4-(difluoromethyl)pyrimidine-2-yl)-6-methylpyridine-2-yl)amino)-5-azaspiro[2.4]hept-5-yl)-2-(5-fluoro-2-methoxypyridine-4-yl)propan-1-one] showed a negative logarithm of the IC50 (pIC50) of 8.52.

As for `COc1cc([C@@H](C)C(=O)N2C[C@@H](Nc3ccc(-c4nccc(C(F)F)n4)c(C)n3)C3(CC3)C2)c(Cl)cn1` [Compound 156, (R)-2-(5-chloro-2-methoxypyridine-4-yl)-1-((S)-7-((5-(4-(difluoromethyl)pyrimidine-2-yl)-6-methylpyridine-2-yl)amino)-5-azaspiro[2.4]hept-5-yl)propan-1-one], the negative logarithm of the IC50 (pIC50) is 8.73.

`COc1cc([C@@H](C)C(=O)N2C[C@@H](Nc3ccc(-c4cnn(C)n4)c(C)n3)C3(CC3)C2)c(Cl)cn1` [Compound 166, (R)-2-(5-chloro-2-methoxypyridine-4-yl)-1-((S)-7-((6-methyl-5-(2-methyl-2H-1,2,3-triazol-4-yl)pyridine-2-yl)amino)-5-azaspiro[2.4]hept-5-yl)propan-1-one] gave a negative-log IC50 (pIC50) of 8.39.

Tested on in another series: not listed separately
Nature of the series: Pharmacokinetic study on the tested compound in SD male rats. The format is in vivo. The conditions noted are these: IV 1 mpk/PO 2 mpk. How it is done:
On the day of administration, the tested compound was prepared with 5% DMSO + 5% Solutol + 90% Saline as a solvent into a solution for administration for use.
The solution for administration was administered to an intravenous injection IV group at a dose of 1 mg/kg in a concentration of 0.2 mg/mL. The solution for administration was administered to an oral gavage PO group at a dose of 2 mg/kg in a concentration of 0.2 mg/mL. The animals in the PO group were required to fast overnight in advance, drink water freely, and be fed 4 hours after administration. The IV group was not required to fast.
The animals were weighed before administration. On the day of administration, the solution was IV/PO-administered once in an administration amount calculated based on the weight. In the IV group, blood was collected from veins at 0.083 h, 0.25 h, 0.5 h, 1.0 h, 2.0 h, 4.0 h, 8.0 h, and 24 h after administration. In the PO group, blood was collected from veins at 0.25 h, 0.5 h, 1.0 h, 2.0 h, 4.0 h, 6.0 h, 8.0 h, and 24 h after administration. The amount of blood collected was about 0.20 mL. K2-EDTA was used in blood collection tubes as an anticoagulant. The collected blood sample was centrifuged (centrifugation conditions: 6800 g, 6 min, 2°C to 8°C) within 1 h to obtain plasma. The to-be-tested sample was stored in a refrigerator at -80°C before analysis.
The concentration of the tested compound in the plasma of the SD male rats was detected by the validated LC-MS/MS method.
With `COc1cc([C@@H](C)C(=O)N2CC[C@H](Nc3ccc(-c4cn(C)c(OC(F)F)n4)c(C)n3)C2)c(F)cn1` [Compound 197, (R)-1-((S)-3-((5-(2-(difluoromethoxy)-1-methyl-1H-imidazol-4-yl)-6-methylpyridine-2-yl)amino)pyrrolidine-1-yl)-2-(5-fluoro-2-methoxypyridine-4-yl)propan-1-one], the F was 11.1%.

Staying with this series, now noted: Sprague-Dawley (SD), rat, plasma, IV 1 mpk/PO 2 mpk.
With `COc1cc([C@@H](C)C(=O)N2CC[C@H](Nc3ccc(-c4cn(C)c(OC(F)F)n4)c(C)n3)C2)c(F)cn1` [Compound 197, (R)-1-((S)-3-((5-(2-(difluoromethoxy)-1-methyl-1H-imidazol-4-yl)-6-methylpyridine-2-yl)amino)pyrrolidine-1-yl)-2-(5-fluoro-2-methoxypyridine-4-yl)propan-1-one], the AUC (usually the area under the concentration-time curve, a measure of exposure) came out at 43 ng·h/mL; the peak concentration (Cmax) (in general, the maximum level reached in the sampled fluid or tissue) was determined as 35 ng/mL; the clearance came to 86.9 mL/min/kg; the half-life (as a rule, the time in which the quantity being followed falls by half) is 1.2 h.
